{
  "source": "patent US4521335A",
  "about": "“Aglycone and pseudo-aglycones of the AAD 216 antibiotics” (SmithKline Beckman Corporation, priority 1984, dated 1985)",
  "key": {"Strep. faecilis HH34358": {"tested_on": "Strep. faecilis HH34358", "assay": "MIC, standard microtiter assay", "assay_type": "cell-based"}, "[1]": {"tested_on": "Serratia marcesens ATCC 13880", "assay": "MIC, standard microtiter assay", "assay_type": "cell-based", "settings": "ATCC13880"}, "Providencia SK & F 276": {"tested_on": "Providencia SK & F 276", "assay": "MIC, standard microtiter assay", "assay_type": "cell-based"}, "[2]": {"tested_on": "Enterobacter cloacae HH31254", "assay": "MIC, standard microtiter assay", "assay_type": "cell-based"}, "[3]": {"tested_on": "Staph. epidermidis SK & F 2479", "assay": "MIC, standard microtiter assay", "assay_type": "cell-based", "settings": "Staphylococcus epidermidis"}, "[4]": {"tested_on": "Staph. epidermidis SK & F 651", "assay": "MIC, standard microtiter assay", "assay_type": "cell-based", "settings": "Staphylococcus epidermidis"}, "[5]": {"tested_on": "Staph. aureus SK & F 1761", "assay": "MIC, standard microtiter assay", "assay_type": "cell-based", "settings": "Staphylococcus aureus"}, "[6]": {"tested_on": "Staph. aureus SK & F 2666", "assay": "MIC, standard microtiter assay", "assay_type": "cell-based", "settings": "Staphylococcus aureus"}, "[7]": {"tested_on": "Staph. aureus SK & F 2678", "assay": "MIC, standard microtiter assay", "assay_type": "cell-based", "settings": "Staphylococcus aureus"}, "[8]": {"tested_on": "Staph. aureus SK & F 2680", "assay": "MIC, standard microtiter assay", "assay_type": "cell-based", "settings": "Staphylococcus aureus"}, "[9]": {"tested_on": "Staph. aureus SK & F 2682", "assay": "MIC, standard microtiter assay", "assay_type": "cell-based", "settings": "Staphylococcus aureus"}, "[10]": {"tested_on": "Staph. aureus SK & F 2743", "assay": "MIC, standard microtiter assay", "assay_type": "cell-based", "settings": "Staphylococcus aureus"}, "[11]": {"tested_on": "Staph. aureus SK & F 2776", "assay": "MIC, standard microtiter assay", "assay_type": "cell-based", "settings": "Staphylococcus aureus"}, "[12]": {"tested_on": "Staph. aureus SK & F 2613", "assay": "MIC, standard microtiter assay", "assay_type": "cell-based", "settings": "Staphylococcus aureus"}, "[13]": {"tested_on": "Staph. aureus SK & F 2614", "assay": "MIC, standard microtiter assay", "assay_type": "cell-based", "settings": "Staphylococcus aureus"}, "[14]": {"tested_on": "Staph. aureus SK & F 2616", "assay": "MIC, standard microtiter assay", "assay_type": "cell-based", "settings": "Staphylococcus aureus"}, "[15]": {"tested_on": "Staph. aureus SK & F 2621", "assay": "MIC, standard microtiter assay", "assay_type": "cell-based", "settings": "Staphylococcus aureus"}, "[16]": {"tested_on": "Staph. aureus SK & F 2594", "assay": "MIC, standard microtiter assay", "assay_type": "cell-based", "settings": "Staphylococcus aureus"}, "[17]": {"tested_on": "Staph. aureus SK & F 2593", "assay": "MIC, standard microtiter assay", "assay_type": "cell-based", "settings": "Staphylococcus aureus"}, "[18]": {"tested_on": "Staph. aureus SK & F 2597", "assay": "MIC, standard microtiter assay", "assay_type": "cell-based", "settings": "Staphylococcus aureus"}, "B. fragilis SK & F 3060": {"tested_on": "B. fragilis SK & F 3060", "assay": "MIC, standard microtiter assay", "assay_type": "cell-based", "settings": "Bacteroides fragilis"}, "B. loeochis SK & F 3087": {"tested_on": "B. loeochis SK & F 3087", "assay": "MIC, standard microtiter assay", "assay_type": "cell-based", "settings": "Table D, Anaerobes", "source_text": "The AAD 216 aglycone, the AAD 216 pseudo-aglycone, the AAD 216A pseudo-aglycone, the AAD 216B pseudo-aglycone and the AAD 216C pseudo-aglycone were neutralized with sodium bicarbonate prior to testing."}, "[19]": {"tested_on": "C. perfringens ATCC 19408", "assay": "microbe, parasite or virus in culture", "assay_type": "cell-based", "settings": "Clostridium perfringens, ATCC19408"}, "C. difficile SK & F 3065": {"tested_on": "C. difficile SK & F 3065", "assay": "MIC, standard microtiter assay", "assay_type": "cell-based", "settings": "Clostridioides difficile"}, "[20]": {"tested_on": "Staph. aureus SK & F 674-P6-mutant", "assay": "microbe, parasite or virus in culture", "assay_type": "cell-based", "settings": "Staphylococcus aureus"}, "[21]": {"tested_on": "Strep. faecalis SK & F 34358", "assay": "MIC, standard microtiter assay", "assay_type": "cell-based", "settings": "Enterococcus faecalis"}, "E. coli SK & F 12140": {"tested_on": "E. coli SK & F 12140", "assay": "MIC, standard microtiter assay", "assay_type": "cell-based", "settings": "Escherichia coli"}, "[22]": {"tested_on": "Salmonella gallinarum BC-595", "assay": "microbe, parasite or virus in culture", "assay_type": "cell-based", "settings": "Salmonella enterica"}, "[23]": {"tested_on": "Bacteroides Fragilis ATCC", "assay": "MIC, standard microtiter assay", "assay_type": "cell-based"}, "C. difficile SK & F 3141": {"tested_on": "C. difficile SK & F 3141", "assay": "MIC, standard microtiter assay", "assay_type": "cell-based", "settings": "Clostridioides difficile"}, "Staph. aureus HH 127": {"tested_on": "Staph. aureus HH 127", "assay": "in vivo activity against intraperitoneal infections in mice", "design": "species or system mice infected with Staph. aureus", "settings": "Staphylococcus aureus, HH127, sc"}, "[24]": {"tested_on": "inoculum (rumen cannula filtrate)", "assay": "rumen in vitro model, growth promotant activity", "settings": "experiment III; for GLU (% Control): glucose; for LYS (% Control): lysine; for Propionate % (% Control): propionate as percentage of total VFA; for VFA (% Control): total volatile fatty acids"}},
  "data": [
    {"compound": "CN[C@H](CC(C)C)C(=O)N[C@H]1C(=O)N[C@@H](CC(N)=O)C(=O)N[C@H]2C(=O)N[C@H]3C(=O)N[C@H](C(=O)N[C@H](C(=O)O)c4cc(O)cc(O)c4-c4cc3ccc4O)[C@H](O)c3ccc(c(Cl)c3)Oc3cc2cc(c3O[C@@H]2O[C@H](CO)[C@@H](O)[C@H](O)[C@H]2O[C@H]2C[C@](C)(N)[C@H](O)[C@H](C)O2)Oc2ccc(cc2Cl)[C@H]1O", "note": "[Vancomycin, vancomycin]", "values": [
      {"measurement": "MIC", "setting": "Strep. faecilis HH34358", "value": 3.1, "unit": "µg/mL"},
      {"measurement": "MIC", "setting": "[1]", "value": "> 100", "unit": "µg/mL"},
      {"measurement": "MIC", "setting": "Providencia SK & F 276", "value": "> 100", "unit": "µg/mL"},
      {"measurement": "MIC", "setting": "[2]", "value": "> 100", "unit": "µg/mL"},
      {"measurement": "MIC", "setting": "[3]; Table A", "value": 1.6, "unit": "µg/mL"},
      {"measurement": "MIC", "setting": "[3]; Table E", "value": 3.1, "unit": "µg/mL"},
      {"measurement": "MIC", "setting": "[4]; Table A, Staph. epidermidis SK & F 651", "value": 1.6, "unit": "µg/mL"},
      {"measurement": "MIC", "setting": "[4]; Table E, Staph. epidermidis SK & F 651, first entry", "value": 3.1, "unit": "µg/mL"},
      {"measurement": "MIC", "setting": "[4]; Table E, Staph. epidermidis SK & F 651, second entry", "value": 3.1, "unit": "µg/mL"},
      {"measurement": "MIC", "setting": "[5]", "value": 1.6, "unit": "µg/mL"},
      {"measurement": "MIC", "setting": "[6]", "value": 1.6, "unit": "µg/mL"},
      {"measurement": "MIC", "setting": "[7]", "value": 1.6, "unit": "µg/mL"},
      {"measurement": "MIC", "setting": "[8]", "value": 1.6, "unit": "µg/mL"},
      {"measurement": "MIC", "setting": "[9]", "value": 1.6, "unit": "µg/mL"},
      {"measurement": "MIC", "setting": "[10]", "value": 1.6, "unit": "µg/mL"},
      {"measurement": "MIC", "setting": "[11]", "value": 1.6, "unit": "µg/mL"},
      {"measurement": "MIC", "setting": "[12]", "value": 1.6, "unit": "µg/mL"},
      {"measurement": "MIC", "setting": "[13]", "value": 1.6, "unit": "µg/mL"},
      {"measurement": "MIC", "setting": "[14]", "value": 0.8, "unit": "µg/mL"},
      {"measurement": "MIC", "setting": "[15]", "value": 1.6, "unit": "µg/mL"},
      {"measurement": "MIC", "setting": "[16]", "value": 1.6, "unit": "µg/mL"},
      {"measurement": "MIC", "setting": "[17]", "value": 1.6, "unit": "µg/mL"},
      {"measurement": "MIC", "setting": "[18]", "value": 3.1, "unit": "µg/mL"},
      {"measurement": "MIC", "setting": "B. fragilis SK & F 3060", "value": 32, "unit": "µg/mL"},
      {"measurement": "MIC", "setting": "B. loeochis SK & F 3087", "value": 32, "unit": "µg/mL"},
      {"measurement": "MIC", "setting": "[19]", "value": 1, "unit": "µg/mL"},
      {"measurement": "MIC", "setting": "C. difficile SK & F 3065; Table D, Anaerobes", "value": 4, "unit": "µg/mL"},
      {"measurement": "MIC", "setting": "C. difficile SK & F 3065; Table F", "value": 1, "unit": "µg/mL"},
      {"measurement": "MIC", "setting": "[20]", "value": 100, "unit": "µg/mL"},
      {"measurement": "MIC", "setting": "[21]", "value": 3.1, "unit": "µg/mL"},
      {"measurement": "MIC", "setting": "E. coli SK & F 12140", "value": "> 100", "unit": "µg/mL"},
      {"measurement": "MIC", "setting": "[22]", "value": "> 100", "unit": "µg/mL"},
      {"measurement": "MIC", "setting": "[23]", "value": "> 32", "unit": "µg/mL"},
      {"measurement": "MIC", "setting": "C. difficile SK & F 3141", "value": 1, "unit": "µg/mL"},
      {"measurement": "ED50", "setting": "Staph. aureus HH 127; i.p. infection 46.8 LD50's Staph. aureus HH 127, s.c. 1 and 5 hours post infection", "value": 1.56, "unit": "mg/kg"},
      {"measurement": "ED50", "setting": "Staph. aureus HH 127; second test, similar protocol, s.c.", "value": 1.92, "unit": "mg/kg"},
      {"measurement": "GLU (% Control)", "setting": "[24]; 0.5 ppm", "value": 17, "unit": "% Control"},
      {"measurement": "LYS (% Control)", "setting": "[24]; 0.5 ppm", "value": 83, "unit": "% Control"},
      {"measurement": "Propionate % (% Control)", "setting": "[24]; 0.5 ppm", "value": 105, "unit": "% Control"},
      {"measurement": "VFA (% Control)", "setting": "[24]; 0.5 ppm", "value": 97, "unit": "% Control"},
      {"measurement": "GLU (% Control)", "setting": "[24]; 5.0 ppm", "value": 165, "unit": "% Control"},
      {"measurement": "LYS (% Control)", "setting": "[24]; 5.0 ppm", "value": 85, "unit": "% Control"},
      {"measurement": "Propionate % (% Control)", "setting": "[24]; 5.0 ppm", "value": 130, "unit": "% Control"},
      {"measurement": "VFA (% Control)", "setting": "[24]; 5.0 ppm", "value": 108, "unit": "% Control"},
      {"measurement": "GLU (% Control)", "setting": "[24]; 50.0 ppm", "value": 189, "unit": "% Control"},
      {"measurement": "LYS (% Control)", "setting": "[24]; 50.0 ppm", "value": 97, "unit": "% Control"},
      {"measurement": "Propionate % (% Control)", "setting": "[24]; 50.0 ppm", "value": 127, "unit": "% Control"},
      {"measurement": "VFA (% Control)", "setting": "[24]; 50.0 ppm", "value": 107, "unit": "% Control"}
    ]}
  ]
}
